Source: patent US20090326064A1, “Pesticidal composition” (priority 2006, published 2009)

What was measured:
Format in all cases: physicochemical
[1] = Vapor pressure; settings: at 25° C.
[2] = Stability in general-use solvents; settings: such as acidic or alkaline aqueous solutions
[3] = Stability under solar light

With `CC=CC1C(C(=O)OCc2c(F)c(F)c(COC)c(F)c2F)C1(C)C` (stereo not drawn) [Compound A, 2,3,5,6-tetrafluoro-4-methoxymethylbenzyl 1R-trans-3-(1-propenyl(E/Z=1/8))-2,2-dimethylcyclopropanecarboxylate] the vapor pressure [1] was 1.96×10^−3 Pa, the “stability in various general-use solvents” value [2] was “stable” and the “stability under solar light” value [3] was “very stable”.
